Assays:
[1] = target: T1, α1-acid glycoprotein (AGP) (Homo sapiens, UniProt P02763); assay: biochemical
[2] = target: T2, human serum albumin (HSA) (Homo sapiens, UniProt P02768); assay: HSA 96-well fluorescence polarization displacement assay (dansyl sarcosine probe, Sudlow Site II)
[3] = target: T1, α1-acid glycoprotein (AGP); assay: AGP LOPAC1280 1,536-well qHTS screen (FP)
[4] = target: T2, human serum albumin (HSA); assay: biochemical
[5] = target: T2, human serum albumin (HSA); assay: HSA 1,536-well fluorescence polarization displacement assay (dansyl sarcosine probe, Sudlow Site II); format: binding; design: Albumin solution from human serum (HSA, Sigma-Aldrich, St. Louis, MO); purchased Sigma-Aldrich; host or cells: human serum
Protocol: For 1,536-well format (Table 2), a 3 µL mixture of HSA and dansyl sarcosine (bound control) or 3 µL of dansyl sarcosine (unbound control) were dispensed into a 1,536-well assay plate using a BioRAPTR. The plate was centrifuged at 1,000 rpm for 15 seconds, covered and incubated for 10 minutes, and FP data were collected on a ViewLux using the optics described above.
FP was measured 15 min after compound addition. Percent inhibition was derived from the bound (i.e., protein-probe complex), or 0% neutral control, and the unbound (i.e., free probe), or 100% displaced control, respectively, by calculating their mean values, and normalizing the data using GraphPad Prism 4.

AGP protein-coated beads = AGP protein-coated beads (Homo sapiens, UniProt P02763); assay: in vitro; settings: protein-coated bead Kd values
Protocol: (§1) This system features the proteins of interest covalently bound to the surface of silica beads through the use of proprietary attachment chemistry. The surface was designed to minimize interactions with drug molecules, thus preventing non-specific binding of test substances.
(§2) AGP or HSA protein-coated beads (Sovicell, Leipzig, Germany; distributed by ADMEcell, Emeryville, CA) were thawed at room temperature for two hours. Stock solutions of each compound were diluted to a final sample concentration of 20 µM or 50 µM. Samples (45 µL) were added to 405 µL of premixed solutions of buffer and AGP or HSA coated beads and mixed thoroughly to keep the beads suspended in solution to allow for the compounds to bind to the protein coated beads, [30]. After centrifuging, 100 µL of supernatant were transferred to a 96-well plate and analyzed on an Agilent 1100 HPLC coupled to a diode array detector.
(§3) After equilibrating the column with 50 mM ammonium acetate buffer/acetonitrile (99%/1%) at a flow rate of 500 µL/min for ∼2 minutes, compounds were detected by initiating a five minute gradient to 100% acetonitrile, held for 3 minutes, followed by a one minute gradient to 1% acetonitrile, where the composition was then maintained for the final three minutes, for a total run time of 12 minutes. The diode array detector channels were set to 230 nm, 260 nm, 300 nm, and 340 nm (bandwidth = 5 nm). Data were evaluated using the Sovicell-supplied Microsoft Excel (Redmond, WA) spreadsheets, [44].

[6] = target: T1, α1-acid glycoprotein (AGP); assay: in vitro; settings: human
Protocol: as §1, §2, §3

HSA protein-coated beads = HSA protein-coated beads (Homo sapiens, UniProt P02768); assay: HSA protein-coated bead assay with HPLC analysis; format: binding; settings: compound 50 µM
Protocol: as §1, §2, §3

[7] = target: T2, human serum albumin (HSA); assay: in vitro
[8] = target: T1, α1-acid glycoprotein (AGP); assay: biochemical; remark: listed apart in the source
[9] = AGP 1,536-well Screen IC50, LOPAC1280 screen, top compound concentration 144 µM
[10] = read-out: HSA 1,536-well IC50 (extrapolated)
[11] = IC50 in AGP LOPAC1280 screen, validation set members present in the LOPAC1280 collection

Sequence of HSA protein-coated beads (P02768 25-609): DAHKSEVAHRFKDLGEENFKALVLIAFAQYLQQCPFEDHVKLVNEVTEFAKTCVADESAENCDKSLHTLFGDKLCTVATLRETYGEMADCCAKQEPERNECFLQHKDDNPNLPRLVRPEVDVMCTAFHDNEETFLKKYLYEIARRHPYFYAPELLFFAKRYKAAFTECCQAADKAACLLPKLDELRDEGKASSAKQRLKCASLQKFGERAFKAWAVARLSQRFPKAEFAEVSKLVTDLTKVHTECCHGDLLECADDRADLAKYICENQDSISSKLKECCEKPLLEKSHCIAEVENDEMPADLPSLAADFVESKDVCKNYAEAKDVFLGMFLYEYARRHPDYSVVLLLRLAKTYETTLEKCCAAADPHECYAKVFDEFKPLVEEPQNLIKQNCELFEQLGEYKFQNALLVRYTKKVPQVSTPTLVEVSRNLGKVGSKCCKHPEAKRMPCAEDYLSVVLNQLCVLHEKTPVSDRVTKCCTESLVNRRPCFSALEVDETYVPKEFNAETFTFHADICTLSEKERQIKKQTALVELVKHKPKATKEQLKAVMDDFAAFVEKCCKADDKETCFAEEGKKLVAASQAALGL
T2 sequence (P02768 25-609): as above
Sequence of AGP protein-coated beads (P02763 19-201): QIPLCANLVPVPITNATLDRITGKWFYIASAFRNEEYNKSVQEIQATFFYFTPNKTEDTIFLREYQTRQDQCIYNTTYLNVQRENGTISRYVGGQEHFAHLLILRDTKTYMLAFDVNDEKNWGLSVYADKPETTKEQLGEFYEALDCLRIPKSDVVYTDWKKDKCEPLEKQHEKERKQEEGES
T1 sequence (P02763 19-201): as above

| SMILES | IC50 [1] | IC50 [2] | IC50 [3] | IC50 [4] | Kd at 2 min, 50 µM [6] | other results |
| --- | --- | --- | --- | --- | --- | --- |
| Nc1nc(N)c2nc(CNc3ccc(C(=O)N[C@@H](CCC(=O)O)C(=O)O)cc3)cnc2n1 [Aminopterin, aminopterin] | 306 µM | 22 µM | 56.2 µM | 8.91 µM |  |  |
| OCc1ccc(-c2nn(Cc3ccccc3)c3ccccc23)o1 [YC-1] | 4.83 µM | 5.07 µM |  | 44.7 µM |  | IC50 [3, 9]: 5.62 µM |
| CN(C)CCCN1c2ccccc2CCc2ccccc21 [Imipramine, imipramine] |  | 5200 µM |  |  | 10.4 µM | IC50 [5, 10]: > 1510 µM; Ratio (HSA Kd / AGP Kd) (AGP protein-coated beads): 14; Kd (HSA protein-coated beads): 149 µM |
| CCCC(=O)NCCc1c2n(c3ccc(OC)cc13)CCCc1ccccc1-2 [K 185] | 10.5 µM | 83.2 µM | 20 µM | 56.2 µM |  |  |
| Nc1ccc2c3c(cccc13)C(=O)NC2=O [4-Amino-1,8-naphthalimide, 4-amino-1,8-naphthalimide] | 832 µM | 37 µM |  | 7.94 µM |  | IC50 [3, 9]: 11.2 µM |
| O=C1N(c2ccccc2)c2ccccc2C1(Cc1ccncc1)Cc1ccncc1 [Linopirdine, linopirdine] | 21.7 µM |  | 35.5 µM |  |  | IC50 ([7]; probe dansyl sarcosine): > 151 µM |
| CN(C)CCCN1c2ccccc2Sc2ccc(Cl)cc21 [Chlorpromazine, chlorpromazine] |  |  |  |  | 7.68 µM | IC50 [3, 11]: 44.7 µM |
| CCC(C)N(C)C(=O)c1cc2ccccc2c(-c2ccccc2Cl)n1 (centres unmarked) [PK 11195] | 23.9 µM |  | 22.4 µM |  |  | IC50 ([7]; probe dansyl sarcosine): > 151 µM |
| COc1ccc(C(CN(C)C)C2(O)CCCCC2)cc1 (centres unmarked) [Venlafaxine, venlafaxine] | > 1000 µM | > 1000 µM | > 144 µM |  |  | IC50 [7]: > 151 µM |
| CC(C)NCC(O)COc1cccc2ccccc12 (centres unmarked) [Propranolol, propranolol] |  | 5330 µM |  |  | 19.2 µM | IC50 [5, 10]: > 1510 µM; Ratio (HSA Kd / AGP Kd) (AGP protein-coated beads): 29; IC50 [3, 11]: 50.1 µM; IC50 ([3]; average IC50, intraplate control, AGP screen, LOPAC1280 screen intraplate control): 48.7 µM; Kd (HSA protein-coated beads): 548 µM |
| OCCN(CCO)c1nc(N2CCCCC2)c2nc(N(CCO)CCO)nc(N3CCCCC3)c2n1 [Dipyridamole, dipyridamole] |  | 62.2 µM |  | 40 µM |  | IC50 ([5]; read-out: HSA 1,536-well IC50): > 1510 µM; Kd (HSA protein-coated beads): 35.6 µM |
| CCCCC1C(=O)N(c2ccccc2)N(c2ccccc2)C1=O [Phenylbutazone, phenylbutazone] | > 1000 µM |  |  |  | 247 µM | IC50 [8]: 1050 µM |
| CN(C)c1cc2c(Nc3ccc4c(cnn4Cc4ccccc4)c3)ncnc2cn1 [GW2974] |  | 4.65 µM | > 144 µM | 7.94 µM |  |  |
| CC#C[C@]1(O)CC[C@H]2[C@@H]3CCC4=CC(=O)CCC4=C3[C@@H](c3ccc(N(C)C)cc3)C[C@@]21C [Mifepristone, mifepristone] | 2.51 µM |  |  |  |  | IC50 [3, 9]: 6.31 µM; IC50 ([7]; probe dansyl sarcosine): > 151 µM |
| C=CCc1ccccc1OCC(O)CNC(C)C (centres unmarked) [Alprenolol, alprenolol] | 273 µM | 1700 µM |  |  | 33.8 µM | IC50 ([5]; read-out: HSA 1,536-well IC50): > 1510 µM; IC50 [8]: 276 µM; HSA Kd (HSA protein-coated beads): apparent inability to bind to the HSA protein coated beads |
| CN(C)CCC=C1c2ccccc2CCc2ccccc21 [Amitriptyline, amitriptyline] | 224 µM | 6750 µM |  |  | 1.89 µM | IC50 ([5]; read-out: HSA 1,536-well IC50): > 1510 µM; Ratio (HSA Kd / AGP Kd) (AGP protein-coated beads): 63; IC50 [8]: 221 µM; Kd (HSA protein-coated beads): 119 µM |
| COc1ccc2c(c1)c(CC(=O)O)c(C)n2C(=O)c1ccc(Cl)cc1 [Indomethacin, indomethacin] |  |  |  |  | 78.8 µM |  |
| COc1cc2nc(N3CCN(C(=O)OCc4ccccc4)C(C(=O)NC(C)(C)C)C3)nc(N)c2cc1OC [L-765,314] | 2.03 µM | 5.21 µM | 14.1 µM | 70.8 µM |  |  |

— publication PMC3447978, “High-Throughput 1,536-Well Fluorescence Polarization Assays for α1-Acid Glycoprotein and Human Serum Albumin Binding” (PLoS ONE, 2012)
